Test results published in US20260035750A1, “TRANSCRIPTIONAL REGULATORS OF THE TEAD FAMILY” (Sanofi, priority 2022, published 2026).
“Also recorded” adds a separate entry of the source.

Columns and labels:
CYR61 = CYR61 (CCN1) marker of TEAD activity, RNA and protein (ELISA) level, in NCI-H226 cells; type: cell-based, human; details: NCI-H226 cells in vitro, treated for 24 hours
Method: The latter protein markers were measured by ELISA assays. Cell lysates were diluted 1/500 in cell lysis buffer. A minimum of four biologic replicates were analyzed for each model. In the reading plate, standards and samples are run in duplicate. hCYR61 was assessed using the human Cyr61 Quantikine™ Colorimetric Sandwich ELISA Kit (R&D Systems, Minneapolis, MN). Diluted lysates were processed and analyzed as described in the manufacturer's instructions. Absorbance values were read using a microplate reader set to 450 nm.
So did the RNA and protein levels of the classical secreted marker of Hippo pathway activity, CYR61 (FIG. 3C).

TEAD = assay: TEAD-500 score (TEAD-dependent transcription) in NCI-H226 cells grown in vitro; type: cell-based, human; details: NCI-H226 malignant mesothelioma cells in vitro, treated for 24 hours
Text: (§1) TEAD-dependent transcription was scored in single samples as the difference Rp-Rn, where Rp is the mean fractional rank of the positive TEAD-effectors, and Rn, that of the negative effectors.
We considered the most abundant transcript of a gene as the representative of the expression of the gene. We, therefore, retain the expression level of the major transcript (maximum level-value per gene and sample, level values may be expression-array signals, RNA sequencing counts, fragments per kilobase per million counts (FPKM), transcripts per million (TPM), or whatever other metric is conveniently used) and discarded the values of all other transcripts. The maximum expression levels of the genes were transformed into fractional ranks by dividing with the maximum expression value of all genes (most abundant gene) observed within a sample. No other normalization is required.
All cell lines were grown at 37° C. under five percent CO2. MSTO-211H (#CRL-2081), NCI-H226 (#CRL-5826), NCI-H2052 (#CRL-5915), NCI-H28 (#CRL-5820), and HCT116 (#CCL-247) were purchased from the American Type Culture Collection (ATCC, Manassas, VA, USA) and cultured according to supplier's recommendation. […]
Fresh tumors were preserved in RNAlater (Thermo Fisher) and frozen at […]. […] The RNA concentration and purity were evaluated with an ND-1000 spectrophotometer (NanoDrop, Thermo Fisher). […]

NCI-H226 cells = assay: In vivo efficacy in subcutaneous NCI-H226 xenografts in SCID mice; details: NCI-H226 xenograft
Method: Female CB17/Icr-Prkdc^scid/IcrIcoCrl mice (6-8 weeks old) were bred at Charles River (Les Oncins, France), housed in Sanofi AAALAC accredited animal facilities, and were provided with irradiated food and filtered water ad libitum.
(§2) In vivo efficacy studies of the K-975 compound were performed in SCID mice inoculated subcutaneously into the right flank with 3×10^6 MSTO-211H or NCI-H226 cells. Mice bearing around 200 mm3 subcutaneous MSTO-211H tumors or 150 mm3 subcutaneous NCI-H226 tumors were randomly assigned to […] of 8 mice/group and treated with either vehicle or K-975 compound twice daily at 30, 100, and 200 mg/kg for 18 consecutive days. Tumor perpendicular diameters were measured twice a week with a caliper, and tumor volume (V) was calculated according to the following equation: V (mm3)=(d2 (mm2)×D (mm))/2, where d is the smallest, and D the largest perpendicular tumor diameters.
The same type of events was observed when SCID mice implanted with malignant mesothelioma parental NCI-H226 cells were treated with 200 mg/kg BID of the benchmark TEAD-inhibitor K-975 (Kaneda A et al. Am J Cancer Res. 2020; 10(12):4399-4415) for 17 consecutive days (FIG. 5). […] The TEAD-500 score correlates, therefore, with tumor behavior under treatment and can be used as a marker of the pharmacodynamics or efficacy of a drug.

[1] = tested on: TEAD-dependent transcription; assay: TEAD-500 score as pharmacodynamic marker in NCI-H226 xenograft tumors; type: in vivo; details: SCID mice, 200 mg/kg BID, in 24 h, sufficient for tumor regression
Method: as §1, §2
Fresh tumors were preserved in RNAlater (Thermo Fisher) and frozen at […]. Copurification of miRNA and total RNA was performed using a miRNeasy Mini Kit (QIAGEN, 217004). The RNA concentration and purity were evaluated with an ND-1000 spectrophotometer (NanoDrop, Thermo Fisher). Quality metrics are the RNA Integrity Number (RIN) and DV200 value (% of RNA fragments with a length≥200 nt). 100 ng total RNA per sample was used as input material for the library preparation. […]

Question: Which results are given for `C=CC(=O)Nc1ccc(C)c(Oc2ccc(Cl)cc2)c1` [K-975]?
Answer: RNA level of CYR61 (CCN1) (CYR61): inhibition; also recorded: regressed in a dose-dependent manner; protein level of CYR61 (CCN1) (CYR61): inhibition; also recorded: regressed in a dose-dependent manner; TEAD-500 score (TEAD): Dose-dependent regression; also recorded: regressed in a dose-dependent manner; tumor behavior under treatment (NCI-H226 cells; 30 mg/kg BID): inactive; tumor behavior under treatment (NCI-H226 cells; 100 mg/kg BID): almost tumor stasis; ΔT/ΔC (NCI-H226 cells; 100 mg/kg BID): 12; tumor behavior under treatment (NCI-H226 cells; 200 mg/kg BID, 17 consecutive days): tumor regression; inhibition of the TEAD-dependent transcription (TEAD-500 score) [1]: 30-40%
